Patent US11046962B2, “Lux expression in cells and methods of use” (490 BioTech, Inc., priority 2019, dated 2021)

Tests used:
[1] = test system: iPSC-derived cardiomyocytes (CMs); experiment: Doxorubicin exposure of cardiomyocytes differentiated from tet-luxCDABEF/tTA iPSCs, autobioluminescence imaging; format: cell-based; conditions: Homo sapiens, Cardiomyocyte, 18 hours exposure prior to imaging, read-out: estimated EC50
Experimental: FIG. 16. Human induced pluripotent stem cells (iPSCs) bearing genomically integrated polycistronic lux operon (luxCDABEF) under control of the tetracycline responsive promoter (tet-luxCDABEF) and a separately integrated CBA-driven transactivator (tTA) were differentiated into cardiomyocytes (CMs). After maturation for approximately 1.5 weeks, the CMs were subjected to doxorubicin exposure. CMs were exposed to doxorubicin at the indicated range of concentrations for 18 hours prior to imaging.

[2] = test system: CM-luxAB/CDEF cardiomyocytes; experiment: Cardiotoxicity reporting by CM-luxAB/CDEF line, autobioluminescent output after 24 hours; format: cell-based; conditions: Homo sapiens, Cardiomyocyte, 24 hours of treatment
Experimental: The autobioluminescent CM-luxAB/CDEF line was treated with a range of doxorubicin (uM) concentrations, and autobioluminescent output was measured after 24 hours of treatment.
The CM-luxAB/CDEF line was treated with a range of doxorubicin concentrations, and the autobioluminescent output was measured after twenty-four (24) hours of treatment. The percent change in average radiance (p/s/cm^2/sr) relative to control was plotted against the corresponding doxorubicin (uM) treatment.

iPSC-luxAB/CDEF cells = experiment: Compound toxicity tracking in iPSC-luxAB/CDEF line by autonomous luminescent output and MTT; format: cell-based, Human; conditions: range of concentrations, 24 hours
Experimental: First, iPSC-luxAB/CDEF cells were seeded in a volume of medium in two separate multi-well plates. Identical platings of untransfected cells were made along with platings of medium to serve as positive and negative controls. For the first plate, the cells were subjected to increasing concentrations of the cytotoxic compound doxorubin. For the second plate, the cells were subjected to increasing concentrations of the cytotoxic compound rotenone. The cells were then incubated under standard growth conditions for twenty four (24) hours. After this time period, the plates was imaged for luminescent output. Bioluminescent readings were obtained using a Synergyll plate reader (BioTek).
Following this reading, the plates were subjected to viability analysis using the MTT assay according to the manufacturer's instructions. MTT assay values were obtained as absorbance values at 570 nm using a Synergyll plate reader (BioTek) and reported as percentage of absorbance relative to untreated control cells. For all measurements, the background absorbance values derived from the medium only controls were subtracted to provide background corrected averages. Absorbance values from each treatment level were averaged, and the average values for each of the plates were used to determine standard errors of the mean for each assay.

[3] = test system: CM-luxAB/CDEF cardiomyocytes; experiment: Continuous cardiotoxicity monitoring with CM-luxAB/CDEF cardiomyocytes over 30 hours

COc1cccc2c1C(=O)c1c(O)c3c(c(O)c1C2=O)C[C@@](O)(C(=O)CO)C[C@@H]3O[C@H]1C[C@H](N)[C@H](O)[C@H](C)O1 [doxorubicin]
EC50 [1]: 0.41 to 0.74 µM
IC50 [2]: 0.29 µM
change of autonomous luminescent signal output indicative of cellular viability (iPSC-luxAB/CDEF cells): dose dependent changes
time of exposure at which the IC50 stabilizes ([3]; kinetic IC50 values over time course, measured every 10 minutes): ~30 h
autobioluminescent output with increasing concentrations ([3]; real time monitoring, 25 hours after addition): decreasing autobioluminescent output
